Each structure is given as a SMILES string.

The nature of one data set: Pyrolysis temperature. It counts as physicochemical. The note with it: thermogravimetric measurement (TG); nitrogen stream, 10° C./min. The method, then: An EXSTAR 6000 DSC apparatus manufactured by SII NanoTechnology Inc. was used, and about 5 mg of a sample was placed in an unsealed aluminum container and heated to 500° C. at a rate of temperature rise of 10° C./min in a nitrogen gas (30 ml/min) stream. In this time, a temperature at which a reducing portion appeared on the base line was defined as a pyrolysis temperature (Tg).

The nature of data set [1]: Solubility in PGME and PGMEA. It counts as physicochemical. The conditions noted are these: 23° C. Here is the method: Herein, the solubility in PGME or PGMEA is defined as “Mass of resin/(Mass of resin+Mass of solvent)×100 (% by mass)”.
The amount of each compound dissolved in 1-methoxy-2-propanol (PGME) and propylene glycol monomethyl ether acetate (PGMEA) was measured at 23° C., and the results were evaluated according to the following criteria.
Evaluation A: 10% by weight or more
Evaluation B: 3% by weight or more and less than 10% by weight
Evaluation C: less than 3% by weight

As to `Oc1ccc2c3c(ccc2c1)Oc1ccc2cc(O)ccc2c1C3c1ccc(-c2ccccc2)cc1` [BisN-1], in “Pyrolysis temperature”, the pyrolysis temperature is 410 °C. Further, the “solubility in PGME and PGMEA” value in data set [1] (1-methoxy-2-propanol (PGME) and propylene glycol monomethyl ether acetate (PGMEA)) was not below 20 % by weight. In data set [1], the “solubility in PGME and PGMEA (Evaluation)” value (“solubility … (Evaluation)” for short) is given as “A (10% by weight or more)”.
In the case of `Oc1ccc2ccc3c(c2c1)C(c1ccc(-c2ccccc2)cc1)c1c(ccc2ccc(O)cc12)O3` [BisN-2], the pyrolysis temperature in “Pyrolysis temperature” is 410 °C. Moreover, in data set [1], the “solubility … (Evaluation)” value is “B (3% by weight or more and less than 10% by weight)”.
As for `Oc1cccc2c3c(ccc12)C(c1ccc(-c2ccccc2)cc1)c1ccc2c(O)cccc2c1O3` [BisN-3], the pyrolysis temperature in “Pyrolysis temperature” was 410 °C. In data set [1], the “solubility … (Evaluation)” value was “B (3% by weight or more and less than 10% by weight)”.
In “Pyrolysis temperature”, `Oc1cccc2c3c(ccc12)Oc1ccc2c(O)cccc2c1C3c1ccc(-c2ccccc2)cc1` [BisN-4] came in with a pyrolysis temperature of 410 °C. For the same molecule, in data set [1], the “solubility … (Evaluation)” value is “B (3% by weight or more and less than 10% by weight)”.
Turning to `Oc1ccc2ccc3c(c2c1)Oc1c(ccc2ccc(O)cc12)C3c1ccc(-c2ccccc2)cc1` [BisN-5], in the data set “Pyrolysis temperature”, the pyrolysis temperature stood at 410 °C. Further, in data set [1], the “solubility … (Evaluation)” value is “B (3% by weight or more and less than 10% by weight)”.
Take `Oc1cc2ccccc2c2c1Oc1c(O)cc3ccccc3c1C2c1ccc(-c2ccccc2)cc1` [BisN-6]: in “Pyrolysis temperature”, the pyrolysis temperature came out at 410 °C. Besides, the “solubility … (Evaluation)” value in data set [1] was “B (3% by weight or more and less than 10% by weight)”.
Regarding `Oc1ccc2c3c(ccc2c1)Oc1ccc2cc(O)ccc2c1C3c1cccc2ccccc12` [BisN-7], in “Pyrolysis temperature”, the pyrolysis temperature is 415 °C. Besides, in data set [1], the “solubility … (Evaluation)” value was “B (3% by weight or more and less than 10% by weight)”.
`Oc1ccc2c3c(ccc2c1)Oc1ccc2cc(O)ccc2c1C3c1cc2ccccc2c2ccccc12` [BisN-8]: the pyrolysis temperature in the data set “Pyrolysis temperature” was 415 °C. Further, the “solubility … (Evaluation)” value in data set [1] was “B (3% by weight or more and less than 10% by weight)”.
In “Pyrolysis temperature”, `Oc1ccc2c3c(ccc2c1)Oc1ccc2cc(O)ccc2c1C3c1ccc2ccc3cccc4ccc1c2c34` [BisN-9] displayed a pyrolysis temperature of 420 °C. Moreover, in data set [1], the “solubility … (Evaluation)” value is “B (3% by weight or more and less than 10% by weight)”.
On to `Oc1ccc2c3c(ccc2c1)Oc1ccc2cc(O)ccc2c1C31CCCCC1` [BisN-10], for which, in the data set “Pyrolysis temperature”, the pyrolysis temperature amounted to 400 °C. The “solubility … (Evaluation)” value in data set [1] was “B (3% by weight or more and less than 10% by weight)”.
`Oc1ccc2c3c(ccc2c1)Oc1ccc2cc(O)ccc2c1C31c2ccccc2-c2ccccc21` [BisN-11] returned a pyrolysis temperature in the data set “Pyrolysis temperature” of 450 °C. The “solubility … (Evaluation)” value in data set [1] is “B (3% by weight or more and less than 10% by weight)”.
`Oc1ccc2c3c(ccc2c1)Oc1ccc2cc(O)ccc2c1C3c1ccc(C2c3c(ccc4cc(O)ccc34)Oc3ccc4cc(O)ccc4c32)cc1` [BisN-12]: the pyrolysis temperature in “Pyrolysis temperature” was determined as 410 °C. In data set [1], the “solubility … (Evaluation)” value was “B (3% by weight or more and less than 10% by weight)”.
Regarding `Oc1ccc2c3c(ccc2c1)Oc1ccc2cc(O)ccc2c1C3c1ccc(-c2ccc(C3c4c(ccc5cc(O)ccc45)Oc4ccc5cc(O)ccc5c43)cc2)cc1` [BisN-13], the pyrolysis temperature in “Pyrolysis temperature” is 410 °C. Moreover, in data set [1], the “solubility … (Evaluation)” value was “B (3% by weight or more and less than 10% by weight)”.
For the molecule `Oc1ccc2c3c(ccc2c1)Oc1ccc2cc(O)ccc2c1C3c1cc(C2c3c(ccc4cc(O)ccc34)Oc3ccc4cc(O)ccc4c32)cc(C2c3c(ccc4cc(O)ccc34)Oc3ccc4cc(O)ccc4c32)c1` [BisN-14], the pyrolysis temperature in “Pyrolysis temperature” was 410 °C. Besides, the “solubility … (Evaluation)” value in data set [1] is “B (3% by weight or more and less than 10% by weight)”.

Source of the values: patent publication US9316913B2, “Underlayer film-forming material for lithography, underlayer film for lithography, and pattern formation method” (MITSUBISHI GAS CHEMICAL COMPANY, INC., priority 2011, dated 2016).
